Reference: patent US20100179188A1, “NITROXIDE RADICAL AS TREATMENT FOR NEURODEGENERATION” (Office of Technology Transfer, NIH, priority 2007, published 2010)

Legend:
IRP2−/− mice = experiment: Observation of other signs of neurodegeneration in IRP2−/− mice; format: in vivo; conditions: IRP2−/− mice supplemented with Tempo1
Excerpt: Background on Experimental Model: In the following examples, IRP2−/− mice are used to model neurodegerative disease. The neurodegeneration of IRP2−/− animals is characterized by progressive loss of motor capabilities, for example as measured in mice by performance on hang-tests, rotarod rotating drum treadmill testing, balance beams, climbing pole tests, allelerods, footprints, decreased grooming activities and gait abnormalities in adult animals. The neurodegeneration of IRP2−/− animals progresses slowly as animals age.
(§1) Diet: The mice were weaned 3-4 weeks after their birth. Immediately after weaning, mice were maintained on either a Tempo1-supplemented or control diet. In the Tempo1-supplemented diet, powdered Tempo1 was uniformly mixed with bacon-flavored mouse chow by a “cold press” technique (Bio-Serv, Frenchtown, N.J., USA) at a concentration of 10 mg/g of food. Bacon-flavored chow without Tempo1 was used as the control diet.

IRP1+/− IRP2−/− mice = experiment: Hang-test of IRP1+/− IRP2−/− mice on Tempo1-supplemented diet; format: in vivo; conditions: FIG. 7c
Experimental: as §1
Hang-test: In the hang-test, mice were allowed to grip a wire mesh that was then inverted. The length of time that a mouse could hang on to an inverted wire mesh before falling (up to a maximum of 60 seconds) was measured and recorded.
Hang-test results of WT, IRP2−/− and IRP1+/− IRP2−/− mice that indicated IRP1+/− IRP2−/− animals were more symptomatic than IRP2−/− animals. […] Error bars represent standard error of the mean. The curves were drawn by using the polynomial curve fit of the KaleidaGraph program.

purified holo-IRP1 = molecular target: T1, purified holo-IRP1 (Homo sapiens, UniProt P21399); experiment: IRE gel shift assay on purified holo-IRP1; format: biochemical
T1 sequence (P21399 1-889): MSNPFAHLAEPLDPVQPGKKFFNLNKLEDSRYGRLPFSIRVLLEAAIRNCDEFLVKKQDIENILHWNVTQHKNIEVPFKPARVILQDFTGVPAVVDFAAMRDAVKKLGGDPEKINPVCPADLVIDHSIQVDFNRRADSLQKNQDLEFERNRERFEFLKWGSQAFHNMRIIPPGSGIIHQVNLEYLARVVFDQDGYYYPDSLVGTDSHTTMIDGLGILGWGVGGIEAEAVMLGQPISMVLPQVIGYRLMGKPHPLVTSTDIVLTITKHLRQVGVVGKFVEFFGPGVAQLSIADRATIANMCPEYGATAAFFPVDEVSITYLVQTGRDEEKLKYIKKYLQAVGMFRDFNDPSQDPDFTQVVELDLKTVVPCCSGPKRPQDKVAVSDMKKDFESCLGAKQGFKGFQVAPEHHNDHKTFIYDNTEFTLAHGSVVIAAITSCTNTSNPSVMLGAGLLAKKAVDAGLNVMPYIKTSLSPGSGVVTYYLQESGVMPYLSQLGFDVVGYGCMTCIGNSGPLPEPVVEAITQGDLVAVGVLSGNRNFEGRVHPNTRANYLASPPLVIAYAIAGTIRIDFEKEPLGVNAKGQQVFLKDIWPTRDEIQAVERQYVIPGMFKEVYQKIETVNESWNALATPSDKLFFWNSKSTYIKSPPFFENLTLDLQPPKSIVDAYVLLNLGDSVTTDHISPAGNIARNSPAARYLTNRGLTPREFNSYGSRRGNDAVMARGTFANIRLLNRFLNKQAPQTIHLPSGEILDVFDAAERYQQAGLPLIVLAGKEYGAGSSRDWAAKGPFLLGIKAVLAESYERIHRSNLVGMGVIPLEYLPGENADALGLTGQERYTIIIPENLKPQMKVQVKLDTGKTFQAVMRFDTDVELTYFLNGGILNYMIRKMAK
Experimental: RNA mobility shift assays: Gel retardation assays were performed as described in Meyron-Holtz et al., EMBO J, 23, 386-395 (2004). Tissue lysates were prepared in an anaerobic chamber as described above in oxygen-depleted lysis buffer containing 10 mM HEPES (pH 7.2), 3 mM MgC12, 40 mM KCl, 5% glycerol, 0.2% Nonidet P-40, 5 mM DTT, 1 mM AEBSF, 10 μg/ml. Leupeptin and complete TM EDTA free protease inhibitor cocktail (Roche Applied Science, Indiana). Lysate (x μl) containing 10 μg of total protein was added to (12.5−x) μl of bandshift buffer containing 25 mM Tris-HCl (pH 7.5) and 40 mM KCl. The samples were incubated for 5 min at room temperature (RT) with 12.5 μl of a reaction cocktail containing 20% glycerol, 0.2 U/μl Super RNAsine (Ambion, Tex.), 0.6 μg/μl yeast t-RNA, 5 mM DTT and 20 nM 32P-labelled IRE from human ferritin H-chain gene in 25 mM Tris-HCl (pH 7.5) and 40 mM KCl. A measure of 20 μl of this reaction mixture was loaded into a 10% acrylamide/TBE gel, which was run at 200 V for 2.15 h, and then the gel was fixed, dried and exposed for autoradiography.
Soum et al., J. Biol Inorg Chem, 8, 226-232 (2003). IRE-binding activity of purified holo-IRP1 (11 ng) was assessed by an IRE gel shift assay. Purified protein (11 ng) was incubated with 0.1% β-mercaptoethanol for 2 h at room temperature without (lane 1) or with (lane 2) 1 mM tempol. Sample in lane 3 was treated with 2% β-mercaptoethanol for 2 min after 2 h incubation without tempol.

Structure (SMILES): CC1(C)CC(O)CC(C)(C)N1[O] [Tempo1]
- other signs of neurodegeneration (movement disorders, tremor, abnormalities of gait and grooming) (IRP2−/− mice): did not develop
- prevention of disease progression (hang-test) (IRP1+/− IRP2−/− mice): did not significantly (p=0.559) prevent
- recruitment of IRE-binding activity (purified holo-IRP1; holo-IRP1, 1.0 mM, 3 h at 37° C., FIG. 6b): almost completely recruited
- IRE binding activity vs IRP1 exposed to room air alone (purified holo-IRP1; purified holo-IRP1, 2 h at room temperature and 3 h at 37° C.): much higher
- IRE binding activity of IRP1 (purified holo-IRP1; purified holo-IRP1 treated with Tempo1): increased
